Data on 43 substances can be found in patent publication US11214803B2, “Modulators of YAP1 expression” (Ionis Pharmaceuticals, Inc., priority 2019, dated 2022).

Strand notation (5' to 3'): a small letter for the sugar, then the base; units joined by * are phosphorothioate-linked, units joined directly phosphodiester-linked; [ ] holds rarer units or linkages, { } end groups; capitals alone tell only the bases. k = constrained ethyl (cEt); [5mC] = 5-methylcytosine; d = 2'-deoxy (DNA)

For the first data set, the system named is Yap1 mRNA. Briefly: Antisense inhibition of human Yap1 in A-431 cells by cEt gapmers, single dose (Example 3, RTS36584). Type of data set: cell-based. The following applies: Table 8; A-431 cells, 5,000 cells per well, free uptake, 2,000 nM, approximately 48 hours; RTS36584; normalized to RIBOGREEN; Yap1 mRNA relative to untreated control cells. The method, boiled down: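 Values are % untreated control: Yap1 mRNA by quantitative RT-PCR (RTS36584), normalized to total RNA by RiboGreen. Before RNA isolation, 5,000 A-431 cells per well were exposed ~48 h to 2,000 nM 16-mer cEt gapmer, delivered without transfection reagent.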
For the substance “958408 (antisense k[5mC]*kT*kA*dT*dA*dT*dA*dT*dG*dG*dT*dA*dG*kT*k[5mC]*kT) [Compound 958408]”, the “YAP1 (% UTC)” value is listed as 20 % UTC.
As to “958417 (antisense kA*k[5mC]*kG*dG*dA*dT*dA*dA*dA*dA*dA*dT*dT*kA*k[5mC]*kT) [Compound 958417]”, the “YAP1 (% UTC)” value is 85 % UTC.
On to “958349 (k[5mC]*k[5mC]*kG*dA*dG*dT*d[5mC]*d[5mC]*d[5mC]*d[5mC]*dG*d[5mC]*dG*kG*kA*k[5mC]; antisense) [Compound 958349]”, for which the “YAP1 (% UTC)” value worked out at 81 % UTC.
Regarding “958406 (antisense kT*kT*kT*d[5mC]*dA*dG*dT*dT*dA*dT*d[5mC]*dG*dG*k[5mC]*k[5mC]*k[5mC]) [Compound 958406]”, the “YAP1 (% UTC)” value came out at 29 % UTC.

The same data set, now with this note: Table 9; A-431 cells, 5,000 cells per well, free uptake, 2,000 nM, approximately 48 hours; RTS36584; normalized to RIBOGREEN; Yap1 mRNA relative to untreated control cells.
Regarding “958801 (antisense k[5mC]*kG*k[5mC]*dT*dA*dG*d[5mC]*dA*d[5mC]*dG*d[5mC]*dG*d[5mC]*kG*k[5mC]*kT) [Compound 958801]”, the “YAP1 (% UTC)” value is 131 % UTC.
Regarding “958731 (antisense kG*k[5mC]*kT*d[5mC]*dT*dG*dT*d[5mC]*dA*dG*dT*dT*dA*kT*k[5mC]*k[5mC]) [Compound 958731]”, the “YAP1 (% UTC)” value was found to be 7 % UTC.

Still in this data set, the particulars now being: Table 10; A-431 cells, 5,000 cells per well, free uptake, 2,000 nM oligonucleotide, approx. 48 hours; primer probe set RTS36584; Yap1 mRNA normalized to RIBOGREEN, percent of untreated control.
Turning to “958817 (kT*kG*k[5mC]*d[5mC]*dA*dG*dG*dT*dA*dA*dG*d[5mC]*d[5mC]*kA*k[5mC]*kA; antisense) [Compound 958817]”, the “YAP1 (% UTC)” value is listed as 30 % UTC.
As for “958757 (antisense kG*kT*kG*dA*dT*d[5mC]*dT*dG*d[5mC]*dA*d[5mC]*dA*dT*kT*kG*kT) [Compound 958757]”, the “YAP1 (% UTC)” value turned out to be 5 % UTC.
The same measure, in the same setting: in the case of “958452 (antisense k[5mC]*kT*k[5mC]*d[5mC]*dA*dG*dG*dT*d[5mC]*dG*dG*dT*d[5mC]*kT*k[5mC]*k[5mC]) [Compound 958452]” it was 26 % UTC; in that of “958782 (antisense kA*kT*kG*dG*dT*d[5mC]*dT*d[5mC]*d[5mC]*d[5mC]*dA*dG*dT*k[5mC]*kA*k[5mC]) [Compound 958782]”, 20 % UTC; in that of “958462 (antisense kA*k[5mC]*kT*dG*dG*d[5mC]*dT*dA*d[5mC]*dG*d[5mC]*dA*dG*kG*kG*k[5mC]) [Compound 958462]”, 46 % UTC.

Still in this data set, the particulars now being: Table 11; A-431 cells, 5,000 cells per well, free uptake, 2,000 nM oligonucleotide, approx. 48 hours; primer probe set RTS36584; Yap1 mRNA normalized to RIBOGREEN, percent of untreated control.
Take “958523 (kT*kT*k[5mC]*d[5mC]*dA*dA*dT*d[5mC]*dG*dA*dG*dA*d[5mC]*kT*kT*kA; antisense) [Compound 958523]”: the “YAP1 (% UTC)” value stood at 3 % UTC.
Take “958798 (antisense kT*kG*k[5mC]*dA*dG*dT*dA*dT*dA*dA*dT*dA*dT*k[5mC]*k[5mC]*kT) [Compound 958798]”: the “YAP1 (% UTC)” value is listed as 3 % UTC.

Staying with this data set, now noted: Table 12; A-431 cells, 5,000 cells per well, free uptake, 2,000 nM modified oligonucleotide, approx. 48 hours; RTS36584; normalized to RIBOGREEN; Yap1 mRNA relative to untreated control cells.
For “958639 (antisense kG*kT*kT*dA*dT*dG*dG*dG*dT*dG*d[5mC]*dT*dT*kT*kT*k[5mC]) [Compound 958639]”, the “YAP1 (% UTC)” value is 18 % UTC.
Same read-out and setting: in the case of “958784 (antisense kG*kG*k[5mC]*dT*dG*dG*dA*dT*dA*dG*dA*dA*dT*kG*k[5mC]*kT) [Compound 958784]” it was 79 % UTC; in that of “958454 (antisense kG*kG*kA*dA*dT*dG*dA*dG*d[5mC]*dT*d[5mC]*dG*dA*kA*k[5mC]*kA) [Compound 958454]”, 3 % UTC.
Turning to “958564 (kT*k[5mC]*k[5mC]*dA*dA*dA*dT*dT*dG*dA*dA*dG*dG*kG*k[5mC]*k[5mC]; antisense) [Compound 958564]”, the “YAP1 (% UTC)” value amounted to 62 % UTC.

The data set is the same for the next values; noted with them: Table 13; A-431 cells, 5,000 cells per well, free uptake, 2,000 nM modified oligonucleotide, approx. 48 hours; RTS36584; normalized to RIBOGREEN; Yap1 mRNA relative to untreated control cells.
For “958810 (kT*kT*kA*dT*dA*dT*dA*d[5mC]*dG*dG*dG*dA*dA*kA*kA*kT; antisense) [Compound 958810]”, the “YAP1 (% UTC)” value is 47 % UTC.
The same measure, in the same setting: for “958660 (k[5mC]*k[5mC]*k[5mC]*dA*d[5mC]*dT*dG*dG*dG*dT*dT*dT*dG*kT*k[5mC]*k[5mC]; antisense) [Compound 958660]” the value was 106 % UTC; for “958580 (kA*kT*kA*dA*dT*d[5mC]*dT*dT*dA*dA*dT*d[5mC]*dT*kG*kT*kG; antisense) [Compound 958580]”, 4 % UTC.

Still in this data set, the particulars now being: Table 26; Yap1 mRNA by 3-10-3 cEt gapmers targeting SEQ ID NO.: 1, and 2; percent of untreated control.
In the case of “1076012 (kA*kA*kT*dA*dT*dA*dA*dA*d[5mC]*dA*dA*dT*dA*kG*k[5mC]*kG; antisense) [compound 1076012]”, the “YAP1 (% UTC)” value is reported as 34 % UTC.
The same measure, in the same setting: in the case of “1075596 (antisense kA*kT*kA*dT*dA*dA*dT*dA*d[5mC]*dA*dT*d[5mC]*dT*k[5mC]*k[5mC]*k[5mC]) [compound 1075596]” it was 91 % UTC; in that of “1075660 (antisense k[5mC]*kA*kA*dA*dG*dT*dA*dA*dA*dA*dA*dA*d[5mC]*kG*kG*kT) [compound 1075660]”, 72 % UTC.
For the substance “1076332 (antisense kT*kA*kT*dA*dA*dG*dG*dA*dA*dT*dG*dG*d[5mC]*kA*kA*k[5mC]) [compound 1076332]”, the “YAP1 (% UTC)” value is 107 % UTC.

Staying with this data set, now noted: Table 27; Yap1 mRNA by 3-10-3 cEt gapmers targeting SEQ ID NO.: 1, and 2; percent of untreated control.
For the substance “1075117 (k[5mC]*k[5mC]*kT*d[5mC]*dA*dA*dT*dA*dG*d[5mC]*dA*dA*dG*kA*k[5mC]*kA; antisense) [compound 1075117]”, the “YAP1 (% UTC)” value is 48 % UTC.
Turning to “1074797 (kA*k[5mC]*kT*d[5mC]*d[5mC]*dA*dA*dA*dT*d[5mC]*dA*dA*dT*kG*kT*kG; antisense) [compound 1074797]”, the “YAP1 (% UTC)” value came out at 31 % UTC.
With “1074381 (kA*kG*kT*d[5mC]*dT*dG*dG*dG*dA*dA*dA*d[5mC]*dG*kG*kT*kT; antisense) [compound 1074381]”, the “YAP1 (% UTC)” value came to 16 % UTC.

The data set is the same for the next values; noted with them: Table 28; Yap1 mRNA as percent of untreated control; 3-10-3 cEt gapmers targeting SEQ ID NO.: 1, and 2.
In the case of “1075950 (antisense kT*kG*kA*d[5mC]*dA*dA*dT*dA*d[5mC]*d[5mC]*dT*dT*d[5mC]*k[5mC]*kT*kA) [compound 1075950]”, the “YAP1 (% UTC)” value was 30 % UTC.

The data set is the same for the next values; noted with them: Table 29; Yap1 mRNA as percent of untreated control; 3-10-3 cEt gapmers targeting SEQ ID NO.: 1, and 2.
Turning to “1074223 (antisense kG*kA*kA*dA*d[5mC]*dA*dG*d[5mC]*dT*d[5mC]*d[5mC]*d[5mC]*dA*kA*k[5mC]*kT) [compound 1074223]”, the “YAP1 (% UTC)” value amounted to 48 % UTC.
The same measure, in the same setting: for “1076047 (kA*k[5mC]*kT*dT*dA*dA*dA*dT*dG*dG*dT*dG*d[5mC]*kA*kA*kT; antisense) [compound 1076047]” the value was 34 % UTC; for “1074671 (antisense k[5mC]*kA*kA*dG*dT*dA*dG*d[5mC]*dT*dT*dT*dG*dA*kT*k[5mC]*kT) [compound 1074671]”, 8 % UTC; for “1075407 (antisense kG*kA*kA*d[5mC]*dT*dA*dT*dA*dT*dA*dA*d[5mC]*d[5mC]*kT*kG*kA) [compound 1075407]”, 32 % UTC.
In the case of “1075887 (antisense kT*kA*kT*dT*dA*d[5mC]*dT*dT*dG*dA*dT*dT*dG*kA*k[5mC]*kA) [compound 1075887]”, the “YAP1 (% UTC)” value came out at 10 % UTC.
Still for that read-out and setting: for “1074191 (antisense kA*k[5mC]*kG*dG*d[5mC]*dG*dG*dG*d[5mC]*d[5mC]*d[5mC]*dT*dG*k[5mC]*k[5mC]*k[5mC]) [compound 1074191]” the value was 80 % UTC.

Staying with this data set, now noted: Table 34; Yap1 mRNA as percent of untreated control; 3-10-3 cEt gapmers targeting SEQ ID NO: 1 and 2; single dose.
Regarding “1075956 (kT*kA*kT*dA*dA*dA*dG*d[5mC]*dA*dA*dT*dG*d[5mC]*kG*kA*kT; antisense) [compound 1075956]”, the “YAP1 (% UTC)” value was found to be 27 % UTC.
Still for that read-out and setting: for “1074932 (antisense kG*kG*kA*dG*dA*d[5mC]*dT*dA*dT*dA*d[5mC]*dA*dA*k[5mC]*kA*kG) [compound 1074932]” the value was 88 % UTC.
Regarding “1076212 (k[5mC]*kA*kA*dA*dT*dT*dT*dA*dT*dA*dT*dG*d[5mC]*kT*k[5mC]*k[5mC]; antisense) [compound 1076212]”, the “YAP1 (% UTC)” value was determined as 15 % UTC.
“1075636 (antisense k[5mC]*kA*kA*dT*dA*dA*dA*d[5mC]*dA*d[5mC]*d[5mC]*dT*d[5mC]*kG*k[5mC]*k[5mC]) [compound 1075636]”: the “YAP1 (% UTC)” value came to 91 % UTC.
On the same count and under the same terms, for “1076564 (kT*kA*kA*dA*dG*dT*dA*dA*dT*dG*d[5mC]*dT*dA*k[5mC]*kA*kG; antisense) [compound 1076564]” the value was 77 % UTC; for “1075028 (antisense kA*kA*kA*dA*dA*dT*d[5mC]*dA*dA*dG*d[5mC]*d[5mC]*d[5mC]*kT*k[5mC]*kG) [compound 1075028]”, 103 % UTC.
With “1074900 (antisense kA*kT*kT*dA*dA*d[5mC]*dT*dT*dT*dT*dG*dG*dG*k[5mC]*kA*kA) [compound 1074900]”, the “YAP1 (% UTC)” value was 40 % UTC.

The same data set, now with this note: Table 35; Yap1 mRNA as percent of untreated control; 3-10-3 cEt gapmers targeting SEQ ID NO: 1 and 2; single dose.
On to “1075765 (k[5mC]*kT*kT*dA*dA*dG*dG*d[5mC]*dA*dG*d[5mC]*dT*d[5mC]*kT*kA*kT; antisense) [compound 1075765]”, for which the “YAP1 (% UTC)” value was determined as 58 % UTC.
For “1075317 (antisense kG*kT*kA*dT*dT*d[5mC]*dG*d[5mC]*d[5mC]*dT*d[5mC]*d[5mC]*dT*kG*k[5mC]*kA) [compound 1075317]”, the “YAP1 (% UTC)” value is 27 % UTC.
